# What was measured:
# human platelet system = experiment: Prostacyclin-like activity in human platelet system (antagonism of ADP); assay type: cell-based
# guinea pig trachea = biological target: T1, guinea pig trachea (Cavia porcellus, UniProt A0A286Y4I8); experiment: Guinea pig trachea system: antagonism of 11,9-(epoxymethano) PGH2 tension response in trachea strips (Gaddum-Schild KB); assay type: cell-based; conditions: agonist 11,9-(epoxymethano) PGH2; compound added 50 minutes before agonist; head KB × 10^-6
# T1 construct: from tissue; host or cells: guinea pig trachea, spiral strips
# T1 sequence (A0A286Y4I8 1-347): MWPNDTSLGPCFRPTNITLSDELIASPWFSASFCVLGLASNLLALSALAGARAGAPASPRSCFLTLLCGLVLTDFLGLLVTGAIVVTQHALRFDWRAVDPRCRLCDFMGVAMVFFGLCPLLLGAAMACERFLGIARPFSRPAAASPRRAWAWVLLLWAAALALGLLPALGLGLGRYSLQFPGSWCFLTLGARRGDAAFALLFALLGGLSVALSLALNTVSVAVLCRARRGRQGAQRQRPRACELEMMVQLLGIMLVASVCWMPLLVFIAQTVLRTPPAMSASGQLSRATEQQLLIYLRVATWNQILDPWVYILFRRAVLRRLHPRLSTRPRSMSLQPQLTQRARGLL
# Method: Spiral strips of trachea are suspended in Kreb's-Henseleit solution, additionally containing atropine sulphate (2×10^-8 M) and indomethacin (10^-6 M), aerated with 95% O2 /5% CO2 and maintained at 37° C. Tension changes are recorded with a Grass FT03 force transducer. Initially, cumulative dose response curves to the agonist 11,9-(epoxymethano) PGH2 are obtained (typically at the same concentrations as for the rabbit aorta system). In a second experiment, the compound under test is added 50 minutes previous to the addition of the series of agonist doses.
# (§1) In the case of each system, the affinity constant, KB, for the compound under test is calculated according to the Gaddum-Schild equation (based on Law of Mass Action). [formula]
# [1] = biological target: T2, human platelet system (thromboxane receptor sites) (Homo sapiens, UniProt P21731); experiment: Human platelet system: antagonism of 11,9-(epoxymethano) PGH2-induced aggregation of washed platelets (Gaddum-Schild KB); assay type: cell-based; conditions: agonist 11,9-(epoxymethano) PGH2, compound added 5 minutes before agonist, read-out: affinity constant KB (converted)
# T2 construct: Washed platelets are prepared by centrifugation; endogenous in cells; host or cells: washed human platelets
# T2 sequence (P21731 1-343): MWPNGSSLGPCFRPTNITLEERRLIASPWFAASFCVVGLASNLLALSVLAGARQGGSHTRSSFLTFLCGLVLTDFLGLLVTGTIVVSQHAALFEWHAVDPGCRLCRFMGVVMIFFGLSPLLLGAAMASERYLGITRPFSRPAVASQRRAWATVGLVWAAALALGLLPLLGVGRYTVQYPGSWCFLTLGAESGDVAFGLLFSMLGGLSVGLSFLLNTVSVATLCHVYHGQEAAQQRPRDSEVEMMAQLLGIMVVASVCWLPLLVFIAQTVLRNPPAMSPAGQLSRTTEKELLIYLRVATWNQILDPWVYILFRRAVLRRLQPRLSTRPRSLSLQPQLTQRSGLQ
# Method: Washed platelets are prepared by centrifugation of plateletrich human plasma at 600×g for 20 minutes. The platelet pellet is resuspended in Ca^++ -free Kreb's solution.
# Addition of the agonist 11.9-(epoxymethano) PGH2 (1×10^-7 to 5×10^-7 M) causes immediate aggregation recorded as an increase in light transmission (600 nm). In a second experiment the compound under test is added 5 minutes previous to the addition of the PGH2 analogue. The dose of the PGH2 analogue added is then increased to a level which gives a similar response to that obtained in the absence of antagonist.
# as §1
# rabbit aorta = biological target: T3, rabbit aorta (Oryctolagus cuniculus, UniProt Q6WQI8); experiment: Rabbit aorta system: antagonism of 11,9-(epoxymethano) PGH2 tension response in thoracic aorta strips (Gaddum-Schild KB); assay type: cell-based; conditions: agonist 11,9-(epoxymethano) PGH2; compound added 30 minutes before agonist; head KB × 10^-6
# T3 construct: functional antagonism of U46619 contraction
# T3 sequence (Q6WQI8 1-233): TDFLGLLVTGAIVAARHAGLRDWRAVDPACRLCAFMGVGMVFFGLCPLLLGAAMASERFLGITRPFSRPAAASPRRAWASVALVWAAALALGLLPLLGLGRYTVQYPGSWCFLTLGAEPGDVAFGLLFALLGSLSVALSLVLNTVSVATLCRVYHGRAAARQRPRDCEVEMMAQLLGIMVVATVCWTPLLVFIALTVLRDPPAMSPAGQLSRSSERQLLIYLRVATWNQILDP
# Method: Spiral strips of thoracic aorta are suspended in Kreb's Henseleit solution and aerated with 95% O2 /5% CO2 at 37° C. Tension changes are recorded with a Grass FT03 force transducer. Initially, cumulative dose response curves to 11,9-(epoxymethanol) PGH2 (2×10^-9,1×10^-8, […] and 2.5×10^-7 M) are obtained. In a second experiment the individual compounds are added 30 minutes previous to the addition of the series of agonist doses.
# as §1
# [2] = tested on: guinea pig bronchoconstriction; experiment: Modified Konzett-Rossler test: inhibition of PGH2 analogue-induced bronchoconstriction in anaesthetised guinea pig; assay type: in vivo
# Method: A male albino guinea pig is anaethetised with a mixture of allyl barbituric acid and ethyl carbamate and the guinea pig is given intravenously a dose of 0.35 μg/kg of 11,9-(epoxymethane) PGH2. After a further period of 10 minutes, the guinea pig is treated intravenously with a dose of 0.3 mg/kg of trans-5-(6'-carboxy-5'-oxahexyl)-6-(1'-[N-phenylthiocarbamoyl-hydrazono]-ethyl-bicyclo [2,2,2] octane.
# The guinea pig is then used in a modified Konzett-Rossler test which gives a measure of the inhibition produced by the test compound of the bronchoconstiction resulting from administration of the PGH2 derivative. This test involves artificially respiring the animals and measuring the amount of residual air with a pressure transducer.
Kb (guinea pig trachea) [nM],Kb (rabbit aorta) [nM],Structure (SMILES),further results
,,"CC(=NOC(c1ccccc1)c1ccccc1)[C@@H]1C2CCC(CC2)[C@H]1CCCCOCC(=O)O (relative stereo) [Example 3, trans-5-(6'-Carboxy-5'-oxahexyl)-6-[1'-(O-diphenylmethoxyimino)ethyl]-bicyclo [2,2,2] octane]",prostacyclin-like activity as evidenced by antagonism of ADP (human platelet system): very little prostacyclin-like activity
14.3,,"CCCCCCNC(=S)NN=C(C)[C@@H]1C2CCC(CC2)[C@H]1CCCCOCC(=O)O (relative stereo) [Example 6, trans-5-(6'-Carboxy-5'-oxahexyl)-6'-(1'-[N-(hexylthiocarbamoyl)-hydrazono]-ethyl)-bicyclo [2,2,2] octane]",
~0.25,,"COc1ccc(NC(=O)NN=C(C)[C@@H]2C3CCC(CC3)[C@H]2CCCCOCC(=O)O)cc1 (relative stereo) [Example 5, trans-5-(6'-Carboxy-5'-oxahexyl)-6-(7'-[N-(p-methoxyphenyl-carbamoyl)-hydrazono]-ethyl)-bicyclo [2,2,2] octane]",
,167,"CC(=NNC(=S)Nc1ccccc1)[C@@H]1C2CCC(CC2)[C@H]1CCCCOCC(=O)O (relative stereo) [Example 4, trans-5-(6'-Carboxy-5'-oxahexyl)-6-(1'-[N-(phenylthiocarbamoyl)-hydrazono]-ethyl)-bicyclo [2,2,2] octane]","Kb [1]: 4.76 nM; inhibition of bronchoconstriction resulting from the PGH2 analogue ([2]; 0.3 mg/kg intravenous, 11,9-(epoxymethano) PGH2 0.35 μg/kg i.v.): markedly blocked the action of the PGH2 analogue; bronchoconstriction caused by compound itself ([2]; 0.3 mg/kg, control without prior administration of PGH2 analogue): did not itself lead to any observable bronchoconstriction"
3.7,192,"CC(=NNC(=S)Nc1ccccc1)[C@@H]1C2CCC(CC2)[C@H]1CCCCCOCC(=O)O (relative stereo) [Example 8, trans-5-(7'-Carboxy-6'-oxaheptyl)-6-(1'-[N-(phenylthiocarbamoyl)-hydrazano]-ethyl)-bicyclo [2,2,2] octane]",
17.9,294,O=C(O)COCCOC[C@@H]1[C@@H]2CC[C@@H](C2)[C@H]1C=NOC(c1ccccc1)c1ccccc1 (relative stereo) [Example 10],
,,"CC(=NNC(=S)Nc1ccccc1)[C@@H]1[C@H]2CC[C@H](C2)[C@H]1C/C=C\CCCC(=O)O (relative stereo) [5-endo-(6'-carboxyhex-2'-Z-enyl)-6-exo-(1'-[N-(phenylthiocarbamoyl)-hydrazono]-ethyl-bicyclo [2,2,1]heptane, reference compound]",Kb [1]: 14.3 nM

# From US5077309A, “Prostaglandins” (National Research Development Corporation, priority 1986, dated 1991)
